Results: US11304956B2, “Use of 7-bromo-5-(O-chlorophenyl)-3-propoxy-1,2-dihydro-3H-1,4-benzodiazepin-2-one for inhibition of neuropathic pain and seizures of different etiology” (priority 2016, dated 2022)

Key:
[1] = test system: pentylenetetrazole-induced convulsions; test: Pentylenetetrazole-induced seizures; type: in vivo, non-linear male mice; conditions: Mus musculus, sc; mice; pentylenetetrazole 120 mg/kg subcutaneously; interval (0.83-0.97) printed on the next line; read-out: Anticonvulsive activity (ED50), Pentylenetetrazole
Description: (§1) In many cases, the presence of anticonvulsant (antiepileptic) effect of the compounds correlates with analgesic properties on corresponding models of neuralgia. As a general step is a primary screening of new anticonvulsant compounds on rodents with the help of pentylenetetrazole test and MES (maximal electroshock seizures) as they have a qualitative difference in development and manifestations of seizures. It is believed that the compound ability to prevent the MES-induced seizures is connected with impulse spread inhibition throughout the central nervous system. It is believed that the ability to prevent the MES-induced seizures development indicates the potential efficacy of the compound in the preventing propagation of a pulse along the neural tissue (see Tompson E. Medicines. Bioscreening/Under the editorship of A. V. Stefanova.-K.: Avitsenna, 1998.—250 p.).
The experiments were performed on non-linear male mice weighing 19-29 g. Pentylenetetrazole was administered subcutaneously in the cervical region of the back. […]
For MES-induced seizures experimental animals were exposed to electric stimulation through the corneal electrodes (50 Hz, 50 mA for mice during 0.2 s). The number of animals with the maximum tonic extension of the hind limbs, which occurs in almost 100% of the animals in the control group, was calculated. […]

MES-induced seizures = test: Maximal electroshock (MES) seizures; type: in vivo, non-linear male mice; conditions: Mus musculus; mice; corneal electrodes 50 Hz, 50 mA, 0.2 s; interval in brackets; read-out: Anticonvulsive activity (ED50), MES
Description: as §1
For MES-induced seizures experimental animals were exposed to electric stimulation through the corneal electrodes (50 Hz, 50 mA for mice during 0.2 s). The number of animals with the maximum tonic extension of the hind limbs, which occurs in almost 100% of the animals in the control group, was calculated. For the statistically significant determination of ED50, 3 doses of the test compound were used; the effect of each dose was studied in 6-8 animals.

gastric mucosa [2] = test: Ulcerogenic effect, acute experiment (single intragastric dose); type: in vivo, rats; conditions: 3 hours; for Average score: 4-score scale; for Multiplicity of damage: number of ulcers per animal
Procedure: (§2) The disadvantage of most analgesics is the fact that they have ulcerogenic effect that interferes with their long-term use. We have studied this side effect of Compound 1 in acute and subchronic experiments. In the first scheme, the compound in the form of an aqueous suspension (Tween-80) was administered in single dose intragastrically to rats, which had previously been deprived of food for 16 hours with free access to water. After 3 hours, the animals were euthanized with a cervical dislocation, then, after dissection of the abdominal cavity, stomachs were ejected and washed in isotonic sodium chloride solution to take out the contents. Damage of stomach was determined visually. In the second scheme, the compound was administered intragastrically for 4 days, after that the extent of the damaging effect on the stomach was determined, as in the previous experiment.
(§3) Evaluation of ulcerogenic action was carried out on a 4-score scale:
(§4) 0 score—no damage; 0.5 score—hyperemia (blood vessels overflow)
(§5) 1 score—single minor lesions (1-3 point hemorrhages or small ulcers)
(§6) 2 score—multiple (more than 3) lesions (erosions, pinpoint hemorrhages) or 1 large ulcer
(§7) 3 score—significant and massive damages (erosions, hemorrhages) of the gastric mucosa with significant size (diameter up to 4 mm)
(§8) 4 score—gross injuries (massive hemorrhages, erosions, perforations) that cover the entire surface of the gastric mucosa.
(§9) The average multiplicity index of damage to the gastric mucosa (the number of ulcers per animal) and the severity of the damage (in scores) were determined.
(§10) Compound 1 was administered over a wide dose range—in acute studies—50, 250, 500 and 1000 mg/kg. For the subchronic experiment, the compound was used at a dose of 50 mg/kg.

gastric mucosa [3] = test: Ulcerogenic effect, subchronic experiment (4 days intragastric); type: in vivo, rats; conditions: 50 mg/kg intragastrically for 4 days
Procedure: as §2, §3, §4, §5, §6, §7, §8, §9, §10
We also determined the indexes of gastrotoxicity of gastric mucosa under conditions of repeated intragastral administration (for 4 days at a dose of 50 mg/kg). […] The average severity in this group was of 1.4±0.27 score, and the multiplicity was of 1.9±0.64 ulcers per animal. This also indicates the absence of a gastrotoxic effect of this compound on the stomach.

gastric mucosa [4] = test: Ulcerogenic effect, chronic experiment (28 days intragastric); type: in vivo, rats; conditions: 0.5 mg/kg intragastrally for 28 days, n = 14
Procedure: as §3, §4, §5, §6, §7, §8, §9
To determine the safety of this compound in a chronic trial during long-term administration, it was administered to rats for 28 days at a dose close to ED50 by analgesic effect (0.5 mg/kg).
The data presented indicate that there is no serious damage to the stomach from the test compound, even when administered at very high doses, several orders higher than the average effective doses, and which are close to the upper limit of permitted doses that can be administered to rats once. Therefore, at the next stage it became reasonable to determine the effect of Compound 1 on the stomach after prolonged use (28 days) in an average effective dose of 0.5 mg/kg.

[5] = test system: acetic acid "writhing" test; conditions: intraperitoneal administration of acetic acid; earlier work of the applicants; cited from earlier work
[6] = 50 mg/kg single intragastric dose
[7] = 250 mg/kg single intragastric dose
[8] = 500 mg/kg single intragastric dose
[9] = 1000 mg/kg single intragastric dose

Question: Which results are given for `CCCOC1N=C(c2ccccc2Cl)c2cc(Br)ccc2NC1=O` (stereo not drawn) [Compound 1, 7-bromo-5-(o-chlorophenyl)-3-propoxy-1,2-dihydro-3H-1,4-benzodiazepin-2-one]?
Answer: ED50 [1]: 0.91 mg/kg; ED50 (MES-induced seizures): 8.2 mg/kg; Number of animals with lesions of the gastric mucosa, score 1 (gastric mucosa [2]; [6]): 3; Number of animals with lesions of the gastric mucosa, score 2 (gastric mucosa [2]; [6]): 0; Number of animals with lesions of the gastric mucosa, score 3 (gastric mucosa [2]; [6]): 0; Number of animals with lesions of the gastric mucosa, score 4 (gastric mucosa [2]; [6]): 0; Average score (gastric mucosa [2]; [6]): 0.2 ± 0.13; Multiplicity of damage (gastric mucosa [2]; [6]): 0.5 ± 0.34; Number of animals with lesions of the gastric mucosa, score 1 (gastric mucosa [2]; [7]): 5; Number of animals with lesions of the gastric mucosa, score 2 (gastric mucosa [2]; [7]): 2; Number of animals with lesions of the gastric mucosa, score 3 (gastric mucosa [2]; [7]): 0; Number of animals with lesions of the gastric mucosa, score 4 (gastric mucosa [2]; [7]): 0; Average score (gastric mucosa [2]; [7]): 0.8 ± 0.25; Multiplicity of damage (gastric mucosa [2]; [7]): 0.9 ± 0.31; Number of animals with lesions of the gastric mucosa, score 1 (gastric mucosa [2]; [8]): 7; Number of animals with lesions of the gastric mucosa, score 2 (gastric mucosa [2]; [8]): 3; Number of animals with lesions of the gastric mucosa, score 3 (gastric mucosa [2]; [8]): 0; Number of animals with lesions of the gastric mucosa, score 4 (gastric mucosa [2]; [8]): 0; Average score (gastric mucosa [2]; [8]): 1.0 ± 0.21; Multiplicity of damage (gastric mucosa [2]; [8]): 1.2 ± 0.25; Number of animals with lesions of the gastric mucosa, score 1 (gastric mucosa [2]; [9]): 8; Number of animals with lesions of the gastric mucosa, score 2 (gastric mucosa [2]; [9]): 3; Number of animals with lesions of the gastric mucosa, score 3 (gastric mucosa [2]; [9]): 0; Number of animals with lesions of the gastric mucosa, score 4 (gastric mucosa [2]; [9]): 0; Average score (gastric mucosa [2]; [9]): 1.3±0.21; Multiplicity of damage (gastric mucosa [2]; [9]): 2.0 ± 0.37; Macroscopic examination of the gastric mucosa (gastric mucosa [3]): insignificant decrease in the folding of the gastric mucosa and a rather distinct decrease in the amount of mucus; Multiplicity (gastric mucosa [3]; n=10): 1.9±0.64 ulcers per animal; Number of animals with lesions of the gastric mucosa, score 1 (gastric mucosa [3]; n=10): 6; Number of animals with lesions of the gastric mucosa, score 2 (gastric mucosa [3]; n=10): 5; Number of animals with lesions of the gastric mucosa, score 3 (gastric mucosa [3]; n=10): 0; Number of animals with lesions of the gastric mucosa, score 4 (gastric mucosa [3]; n=10): 0; Average severity (gastric mucosa [3]; n=10, 4-score scale): 1.4±0.27 score; Number of animals with different degrees lesions of the gastric mucosa, score 1 (gastric mucosa [4]): 4; Number of animals with different degrees lesions of the gastric mucosa, score 3 (gastric mucosa [4]): 0; Number of animals with different degrees lesions of the gastric mucosa, score 4 (gastric mucosa [4]): 0; The multiplicity of damage (gastric mucosa [4]): 0.5±0.23; Average score (gastric mucosa [4]; 4-score scale): 0.4±0.17; Analgesic activity in the "writhing" test [5]: high analgesic activity
